For one assay, the target named is D(3) dopamine receptor (Cricetulus griseus, UniProt A0A3Q0CXS4).
In assay [1] the target is Tyrosine-protein kinase Fyn (Homo sapiens, UniProt P06241).
Assay [2] concerns the target 5-hydroxytryptamine receptor 7 (Homo sapiens, UniProt P34969).
In the next assay the target is D(2) dopamine receptor (Mesocricetus auratus, UniProt A0A1U7QAF5).
The target of assay [3] is 5-hydroxytryptamine receptor 4 (Sus scrofa, UniProt Q29006).
For assay [4], the target named is T1, Alpha-1B adrenergic receptor (Mesocricetus auratus, UniProt P18841).
T1 sequence (P18841 whole entry): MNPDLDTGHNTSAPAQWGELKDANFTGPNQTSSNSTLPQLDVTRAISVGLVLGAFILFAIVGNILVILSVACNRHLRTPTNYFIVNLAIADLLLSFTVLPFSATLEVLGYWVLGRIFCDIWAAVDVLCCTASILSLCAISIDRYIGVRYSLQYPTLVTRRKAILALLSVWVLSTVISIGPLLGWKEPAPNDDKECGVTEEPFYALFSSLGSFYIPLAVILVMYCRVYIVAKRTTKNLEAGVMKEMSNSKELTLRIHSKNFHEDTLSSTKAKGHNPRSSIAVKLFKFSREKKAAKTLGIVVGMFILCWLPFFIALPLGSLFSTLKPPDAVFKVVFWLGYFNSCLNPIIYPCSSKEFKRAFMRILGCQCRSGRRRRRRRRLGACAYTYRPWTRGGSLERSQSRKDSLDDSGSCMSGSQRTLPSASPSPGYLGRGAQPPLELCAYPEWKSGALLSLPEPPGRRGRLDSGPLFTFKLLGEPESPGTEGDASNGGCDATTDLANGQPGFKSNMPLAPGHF

For assay [5], the target named is 5-hydroxytryptamine receptor 1B (Cricetulus griseus, UniProt P46636).
5-hydroxytryptamine receptor 1B, sequence (P46636 whole entry): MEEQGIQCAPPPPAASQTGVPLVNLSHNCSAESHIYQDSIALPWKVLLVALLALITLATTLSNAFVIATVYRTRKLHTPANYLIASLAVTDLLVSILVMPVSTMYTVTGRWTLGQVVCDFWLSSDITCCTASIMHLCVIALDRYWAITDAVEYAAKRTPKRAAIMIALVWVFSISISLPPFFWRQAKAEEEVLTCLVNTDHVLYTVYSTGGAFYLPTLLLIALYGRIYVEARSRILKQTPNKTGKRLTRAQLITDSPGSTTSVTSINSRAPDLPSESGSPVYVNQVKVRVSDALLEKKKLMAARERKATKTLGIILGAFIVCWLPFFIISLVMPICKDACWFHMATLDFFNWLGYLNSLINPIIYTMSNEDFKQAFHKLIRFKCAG

D(3) dopamine receptor, sequence (A0A3Q0CXS4 whole entry): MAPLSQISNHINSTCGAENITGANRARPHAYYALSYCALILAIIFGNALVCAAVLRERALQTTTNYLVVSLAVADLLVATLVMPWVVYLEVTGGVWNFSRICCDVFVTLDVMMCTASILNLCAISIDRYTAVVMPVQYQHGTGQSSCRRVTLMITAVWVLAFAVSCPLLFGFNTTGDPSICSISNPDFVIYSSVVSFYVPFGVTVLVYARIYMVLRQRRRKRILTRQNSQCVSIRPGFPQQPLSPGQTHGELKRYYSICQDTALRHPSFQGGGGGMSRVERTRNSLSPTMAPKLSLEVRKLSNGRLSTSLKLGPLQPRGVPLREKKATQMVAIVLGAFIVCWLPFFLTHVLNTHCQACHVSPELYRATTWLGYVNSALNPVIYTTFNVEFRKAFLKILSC
Tyrosine-protein kinase Fyn, sequence (P06241 whole entry): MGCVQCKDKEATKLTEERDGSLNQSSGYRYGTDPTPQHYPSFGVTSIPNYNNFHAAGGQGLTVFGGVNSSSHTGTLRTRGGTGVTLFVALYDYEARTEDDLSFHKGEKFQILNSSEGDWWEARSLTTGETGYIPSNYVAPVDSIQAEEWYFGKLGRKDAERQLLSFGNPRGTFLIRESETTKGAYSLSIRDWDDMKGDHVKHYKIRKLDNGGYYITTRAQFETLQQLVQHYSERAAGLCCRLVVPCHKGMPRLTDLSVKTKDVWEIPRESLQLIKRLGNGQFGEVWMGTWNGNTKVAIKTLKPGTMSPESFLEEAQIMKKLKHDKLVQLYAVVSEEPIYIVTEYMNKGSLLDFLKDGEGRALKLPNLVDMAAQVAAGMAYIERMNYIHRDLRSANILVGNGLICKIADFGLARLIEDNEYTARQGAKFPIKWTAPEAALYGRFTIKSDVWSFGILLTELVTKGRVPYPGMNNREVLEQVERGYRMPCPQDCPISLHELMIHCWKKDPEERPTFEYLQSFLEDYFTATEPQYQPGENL
5-hydroxytryptamine receptor 7, sequence (P34969 whole entry): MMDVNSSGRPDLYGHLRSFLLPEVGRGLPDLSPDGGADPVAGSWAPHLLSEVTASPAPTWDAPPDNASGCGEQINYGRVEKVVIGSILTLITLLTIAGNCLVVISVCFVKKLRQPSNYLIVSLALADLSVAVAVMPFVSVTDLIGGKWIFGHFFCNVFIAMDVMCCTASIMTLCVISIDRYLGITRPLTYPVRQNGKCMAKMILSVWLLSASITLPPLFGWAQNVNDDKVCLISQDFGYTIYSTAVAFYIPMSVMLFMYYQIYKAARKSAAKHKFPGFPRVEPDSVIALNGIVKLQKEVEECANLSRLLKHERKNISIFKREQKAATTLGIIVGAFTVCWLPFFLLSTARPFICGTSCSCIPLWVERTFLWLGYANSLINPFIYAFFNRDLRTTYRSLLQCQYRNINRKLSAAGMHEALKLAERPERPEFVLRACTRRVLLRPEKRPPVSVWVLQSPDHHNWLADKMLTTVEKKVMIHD
5-hydroxytryptamine receptor 4, sequence (Q29006 whole entry): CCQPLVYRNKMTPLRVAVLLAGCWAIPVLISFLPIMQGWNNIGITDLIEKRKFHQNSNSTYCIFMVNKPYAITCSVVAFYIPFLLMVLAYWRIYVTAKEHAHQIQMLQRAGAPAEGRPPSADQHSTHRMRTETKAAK
D(2) dopamine receptor, sequence (A0A1U7QAF5 whole entry): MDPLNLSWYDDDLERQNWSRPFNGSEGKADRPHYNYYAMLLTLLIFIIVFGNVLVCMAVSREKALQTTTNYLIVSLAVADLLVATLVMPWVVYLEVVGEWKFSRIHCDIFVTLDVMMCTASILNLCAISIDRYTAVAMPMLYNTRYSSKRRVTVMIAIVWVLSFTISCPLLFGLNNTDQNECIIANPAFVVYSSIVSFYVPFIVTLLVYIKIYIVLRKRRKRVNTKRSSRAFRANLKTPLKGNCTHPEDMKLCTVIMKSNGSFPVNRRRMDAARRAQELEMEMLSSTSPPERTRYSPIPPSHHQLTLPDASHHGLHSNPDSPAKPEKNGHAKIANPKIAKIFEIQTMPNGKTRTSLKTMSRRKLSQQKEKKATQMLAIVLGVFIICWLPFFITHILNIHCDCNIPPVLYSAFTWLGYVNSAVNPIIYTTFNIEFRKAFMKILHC

With `Cc1cc2c(cc1Cl)N(C(=O)Nc1ccc(Oc3cccnc3C)nc1)CC2` [CAS_181632-25-7], the Ki – broadly, a dissociation constant, usually derived from enzyme kinetics or from competition with a known ligand – at D(3) dopamine receptor is 631 nM; in assay [1], 1000 nM; in assay [2] it was 794 nM; at D(2) dopamine receptor, 631 nM; in assay [3], 3.16 µM; in assay [4], > 10 µM. In assay [5], this compound displayed a Ki of 398 nM.

For the origin of these results see BindingDB's records for doi:10.1016/s0028-3908(97)00038-5 (Smithkline Beecham Pharmaceuticals, 1997).
